The values below come from ChEMBL document CHEMBL6078616, “Seven-membered N-heterocycles as approved drugs and promising leads in medicinal chemistry as well as the metal-free domino access to their scaffolds” (Eur J Med Chem, 2024).

The target in the test is T1, Histone deacetylase 7 (Homo sapiens, UniProt Q8WUI4).
T1 sequence (Q8WUI4 whole entry): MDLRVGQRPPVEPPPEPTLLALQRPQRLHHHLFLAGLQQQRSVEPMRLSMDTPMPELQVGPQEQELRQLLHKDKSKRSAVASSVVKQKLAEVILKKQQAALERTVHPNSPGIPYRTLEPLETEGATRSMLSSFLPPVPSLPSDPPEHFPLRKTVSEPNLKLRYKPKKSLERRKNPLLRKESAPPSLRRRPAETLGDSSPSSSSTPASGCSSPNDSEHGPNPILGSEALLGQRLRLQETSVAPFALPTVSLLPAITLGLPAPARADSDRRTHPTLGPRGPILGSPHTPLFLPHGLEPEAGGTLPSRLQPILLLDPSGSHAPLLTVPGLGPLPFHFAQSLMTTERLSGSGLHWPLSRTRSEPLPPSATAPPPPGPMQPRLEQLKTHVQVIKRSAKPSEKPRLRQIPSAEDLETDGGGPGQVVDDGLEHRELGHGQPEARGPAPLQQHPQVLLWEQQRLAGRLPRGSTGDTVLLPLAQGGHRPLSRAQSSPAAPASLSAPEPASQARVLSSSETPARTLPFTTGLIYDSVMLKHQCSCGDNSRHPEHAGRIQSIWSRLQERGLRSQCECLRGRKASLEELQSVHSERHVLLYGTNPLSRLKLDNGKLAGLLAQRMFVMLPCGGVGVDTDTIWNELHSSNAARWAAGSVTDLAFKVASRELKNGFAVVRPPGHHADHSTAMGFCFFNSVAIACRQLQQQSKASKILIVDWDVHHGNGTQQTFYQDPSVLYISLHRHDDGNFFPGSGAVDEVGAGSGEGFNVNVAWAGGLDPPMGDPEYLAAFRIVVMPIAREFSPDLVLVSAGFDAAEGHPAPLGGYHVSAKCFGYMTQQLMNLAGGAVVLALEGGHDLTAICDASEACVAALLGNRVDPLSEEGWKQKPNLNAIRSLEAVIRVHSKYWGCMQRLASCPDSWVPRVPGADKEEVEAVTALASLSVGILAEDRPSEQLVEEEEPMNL
In words: Inhibition of HDAC7 (unknown origin).

Bounds are passed on as bounds.

What is called IC50 is the concentration that inhibits the measured activity by half.

Molecule `O=C(NO)c1ccc(CN2c3ccccc3[S+]([O-])C[C@H]3CCCC[C@H]32)cc1` (stereo partly specified) displayed an IC50 of over 30 µM.
